Results: patent US8067454B2, “Thio-substituted Anthra [1, 2-d] imidazole- 6, 11-dione derivatives, preparation method and application thereof” (National Defense Medical Center, priority 2010, dated 2011)

Legend:
GBM8401 = experiment: MTT assay, GBM8401 tumor cell; conditions: for Cell survival rate (%) GBM8401: concentration 10 μM, tumor cell; for inhibitory effect against tumor cell GBM8401: survival rate less than 80%
GBM8901 = experiment: MTT assay, GBM8901 tumor cell; conditions: for Cell survival rate (%) GBM8901: concentration 10 μM, tumor cell
SVG p12 = experiment: MTT assay, SVG p12 normal cell; conditions: for Cell survival rate (%) SVG p12: concentration 10 μM, normal cell
[1] = system: SVG p12, GBM8401 and GBM8901; experiment: MTT assay, normal cell versus tumor cells (categories 39-3 to 39-7); conditions: tumor cell survival rate less than 80%; for category 39-5: survival rate higher than 80% for normal cell SVG p12 and only inhibits growth of tumor cell GBM8901: FIG. 5C; for category 39-3: survival rate higher than 80% for normal cell SVG p12 and inhibits growth of both tumor cells GBM8401 and GBM8901: FIG. 5A

Row | SMILES | Cell survival rate (%) GBM8401 (GBM8401) [%] | Cell survival rate (%) GBM8901 (GBM8901) [%] | Cell survival rate (%) SVG p12 (SVG p12) [%] | category 39-5: survival rate higher than 80% for normal cell SVG p12 and only inhibits growth of tumor cell GBM8901 [1] | category 39-3: survival rate higher than 80% for normal cell SVG p12 and inhibits growth of both tumor cells GBM8401 and GBM8901 [1] | without cell toxicity for normal cell SVGP p12 (SVG p12; survival rate higher than 80%) | category 39-4: survival rate higher than 80% for normal cell SVG p12 and only inhibits growth of tumor cell GBM8401 ([1]; FIG. 5B) | inhibitory effect against tumor cell GBM8401 (GBM8401) | inhibitory effect against tumor cell GBM8901 (GBM8901; survival rate less than 80%)
1 | CCCCSc1nc2ccc3c(c2[nH]1)C(=O)c1ccccc1C3=O [f1-3, 2-(Butylthio)-1H-anthra[1,2-d]imidazole-6,11-dione] | 78 ± 16 | 10 ± 4 | 98 ± 7 | in this category |  |  |  |  | 
2 | Cc1ccccc1CSc1nc2ccc3c(c2[nH]1)C(=O)c1ccccc1C3=O [f1-4, 2-(2-Methylbenzylthio)-1H-anthra[1,2-d]imidazole-6,11-dione] | 25 ± 10 | 18 ± 8 | 58 ± 5 |  |  |  |  |  | 
3 | COC(=O)CCCSc1nc2ccc3c(c2[nH]1)C(=O)c1ccccc1C3=O [f1-5, Methyl-(6,11-dioxo-6,11-dihydro-1H-anthra[1,2-d]imidazol-2-ylthio)butanoate] | 70 ± 10 | 80 ± 2 | 92 ± 5 |  |  |  |  |  | 
4 | COC(=O)/C=C/CSc1nc2ccc3c(c2[nH]1)C(=O)c1ccccc1C3=O [f1-6, (E)-methyl 4-(6,11-dioxo-6,11-dihydro-1H-anthra[1,2-d]imidazol-2-ylthio)but-2-enoate] | 82 ± 7 | 44 ± 5 | 90 ± 6 | in this category |  |  |  |  | 
5 | C#CCSc1nc2ccc3c(c2[nH]1)C(=O)c1ccccc1C3=O [f1-7, 2-(prop-2-ynylthio)-1H-anthra[1,2-d]imidazole-6,11-dione] | 38 ± 10 | 7 ± 2 | 98 ± 2 | in this category |  |  |  |  | 
6 | O=C1c2ccccc2C(=O)c2c1ccc1nc(SCCCCCl)[nH]c21 [f1-8, 2-(4-Chlorobutylthio)-1H-anthra[1,2-d]imidazole-6,11-dione] | 43 ± 10 | 65 ± 10 | 66 ± 3 |  |  |  |  |  | 
7 | O=C1c2ccccc2C(=O)c2c1ccc1nc(SCCCCCCCl)[nH]c21 [f1-10, 2-(6-Chlorohexylthio)-1H-anthra[1,2-d]imidazole-6,11-dione] | 78 ± 5 | 60 ± 2 | 81 ± 1 |  | in this category |  |  |  | 
8 | O=C1c2ccccc2C(=O)c2c1ccc1nc(SCCN3CCOCC3)[nH]c21 [f1-13, 2-(2-morpholinoethylthio)-1H-anthra[1,2-d]imidazole-6,11-dione] | 38 ± 9 | 68 ± 2 | 62 ± 8 |  |  |  |  |  | 
9 | O=C1c2ccccc2C(=O)c2c1ccc1nc(SCCCN3CCCCC3)[nH]c21 [f1-14, 2-(3-(piperidin-1-yl)propylthio)-1H-anthra[1,2-d]imidazole-6,11-dione] | 6 ± 10 | 10 ± 2 | 12 ± 1 |  |  |  |  |  | 
10 | O=C1c2ccccc2C(=O)c2c1ccc1nc(SCC(=O)N3CCOCC3)[nH]c21 [f1-16, 2-(2-morpholino-2-oxoethylthio)-1H-anthra[1,2-d]imidazole-6,11-dione] | 30 ± 9 | 39 ± 2 | 60 ± 1 |  |  |  |  |  | 
11 | O=C1c2ccccc2C(=O)c2c1ccc1nc(SCCC(=O)N3CCOCC3)[nH]c21 [f1-17, 2-(3-morpholino-3-oxopropylthio)-1H-anthra[1,2-d]imidazole-6,11-dione] | 23 ± 10 | 48 ± 1 | 80 ± 0 |  |  | without cell toxicity for normal cell SVGP p12 | in this category |  | 
12 | CCN(CC)C(=O)CCSc1nc2ccc3c(c2[nH]1)C(=O)c1ccccc1C3=O [f1-20, 3-(6,11-dioxo-6,11-dihydro-1H-anthra[1,2-d]imidazol-2-ylthio)-N,N-diethylpropanamide] | 28 ± 11 | 30 ± 2 | 46 ± 2 |  |  |  |  |  | 
13 | O=C1c2ccccc2C(=O)c2c1ccc1nc(SCCC(=O)N3CCCC3)[nH]c21 [f1-22, 2-(3-oxo-3-(pyrrolidin-1-yl)propylthio)-1H-anthra[1,2-d]imidazole-6,11-dione] | 40 ± 15 | 28 ± 2 | 80 ± 3 | in this category |  |  |  |  | 
14 | CCCN(CCC)C(=O)CSc1nc2ccc3c(c2[nH]1)C(=O)c1ccccc1C3=O [f1-23, 2-(6,11-dioxo-6,11-dihydro-1H-anthra[1,2-d]imidazol-2-ylthio)-N,N-dipropylacetamide] | 82 ± 15 | 18 ± 0 | 80 ± 7 | in this category |  |  |  |  | 
15 | O=C(CCc1ccccc1)Sc1nc2ccc3c(c2[nH]1)C(=O)c1ccccc1C3=O [f2-4, S-6,11-dioxo-6,11-dihydro-1H-anthra[1,2-d]imidazol-2-yl 3-phenylpropanethioate] | 62 ± 15 | 72 ± 6 | 61 ± 2 |  |  |  |  |  | 
16 | O=C(Sc1nc2ccc3c(c2[nH]1)C(=O)c1ccccc1C3=O)c1cc(C(F)(F)F)ccc1C(F)(F)F [f2-5, S-6,11-dioxo-6,11-dihydro-1H-anthra[1,2-d]imidazol-2-yl 2,5-bis(trifluoromethyl)benzothioate] | 40 ± 13 | 68 ± 6 | 82 ± 1 |  | in this category |  |  |  | 
17 | O=C1c2ccccc2C(=O)c2c1ccc1nc(SC(=O)N3CCCC3)[nH]c21 [f2-7, S-6,11-dioxo-6,11-dihydro-1H-anthra[1,2-d]imidazol-2-yl pyrrolidine-1-carbothioate] | 72 ± 18 | 42 ± 7 | 62 ± 5 |  |  |  |  | exhibited inhibitory effect against tumor cell GBM8401 | 
18 | O=C1c2ccccc2C(=O)c2c1ccc1nc(SC(=O)N3CCCCC3)[nH]c21 [f2-8, S-6,11-dioxo-6,11-dihydro-1H-anthra[1,2-d]imidazol-2-yl piperidine-1-carbothioate] | 99 ± 25 | 100 ± 0 | 92 ± 3 |  |  |  |  |  | 
19 | CCN(CC)C(=O)Sc1nc2ccc3c(c2[nH]1)C(=O)c1ccccc1C3=O [f2-9, S-6,11-dioxo-6,11-dihydro-1H-anthra[1,2-d]imidazol-2-yl diethylcarbamothioate] | 46 ± 13 | 50 ± 0 | 90 ± 8 |  | in this category |  |  | exhibited inhibitory effect against tumor cell GBM8401 | exhibited inhibitory effect against tumor cell GBM8901
